Data on 17 compounds can be found in patent US9540325B2, “N1-cyclic amine-N5-substituted phenyl biguanide derivatives, methods of preparing the same and pharmaceutical composition comprising the same” (Immunomet Therapeutics, Inc., priority 2011, dated 2017).

One data set deals with HCT116 cells. Description: Measurement of effect of inhibiting cancer cell proliferation (MTT). Format: cell-based, human. The note with it: Homo sapiens; for inhibition at 100 µM: HCT-116, 100 μM, 48 hours, read-out: Cell Growth Inhibition (%) at 100 μM; for GI50: HCT-116, 48 h. From the text: HCT116 cells derived from human colorectal cancer (commercially available from the Korean Cell Line Bank) were used, and the effect of inhibiting cancer cell proliferation of the biguanide derivative was confirmed by measuring the concentration value (cell growth inhibition concentration, GIC50) at which cell growth was inhibited by 50% using a 3-(4,5-dimethylthiazol-2-yl)-2,5-diphenyltetrazolium bromide (MTT) reagent.
First, HCT116 cells were put on a 96-well plate and cultured in a DMEM medium containing 10% fetal bovine serum for 16 hours so that the cellcount in each well was approximately 5,000. Subsequently, to obtain the GIC50 value of each compound, culture media were treated with 100 μM, 25 μM, 6.25 μM, 1.56 μM or 0.39 μM of the compound, and then cultured for 48 hours. Metformin hydrochloride was used as the control, and the culture media were treated with 25, 12.5, 2.5, 0.5, 0.1 mM metformin hydrochloride, and then tested in the same manner as described in the derivatives synthesized in the examples. In order to determine whether the cells survived after treatment with the compounds, MTT was added to the culture media which were then cultured for another 3 hours. Formed formazane crystals were dissolved using dimethyl sulfoxide (DMSO), and the absorbance of the resulting solution was measured at 560 nm. After the 48-hour culture, […] was indicated as cell viability (%) according to each treated concentration. A cell viability curve graph was plotted and the concentration (GIC50) value of the compound at which the growth was inhibited by 50% was calculated to confirm the inhibition effect of cancer cell proliferation. Also, the cell growth viability (%) when the concentration of the treated biguanide derivative and the metformin hydrochloride as the control were 100 μM was shown.

The next data set has as its system AMPKα. The experiment in a line: Measurement of AMPK activation effect (AMPKα Thr172 phosphorylation immunoassay) in MCF7 cells. The note with it: 24 hours; for AMPK activation effect at 10 μM (%) / AMPK activation effect at 50 μM (%): relative to untreated cells; for AMPK activation effect AC150: concentration at which AMPK activation reached 150%. Format: cell-based, human. The protocol:
MCF7 cells derived from human breast cancer cells (commercially available from the Korean Cell Line Bank) were used, and the AMPK activation effect of the biguanide derivative was confirmed using an AMPKα immunoassay kit (Invitrogen, Catalog No. KHO0651).
MCF7 cells were cultured in a DMEM medium supplemented with 10% fetal bovine serum. Thereafter, the cultured MCF7 cells were put into a 6-well plate with approximately 5×10^5 cells per well and cultured in an incubator supplied with 5% CO2. Culture media were treated with the derivatives synthesized in the examples at contents of 5, 10 and 50 μM, and then cultured for 24 hours. Metformin hydrochloride was used as the control, and the culture media were treated with 0.05, 0.5, 1, 2, 5 and 10 mM metformin hydrochloride, and then tested in the same manner as described in the derivatives synthesized in the examples. Subsequently, the cells were lysed according to a method presented in the operation manual of the AMPKα immunoassay kit, and 20 μg of a cell lysate was then yielded through protein assay. Thereafter, the AMPK activation effect was obtained by determining the degree of phosphorylation of 172nd threonine residue (Thr172) of the AMPKα from the cell lysate according to the method presented in the operation manual of the AMPKα immunoassay kit. […] A curve graph showing AMPK activation according to the concentration of the treated compounds was plotted based on the obtained AMPKα activation results, the concentration (activation concentration 150, AC150) value of the compound whose AMPK activation reached 150% was calculated using a GraphPad Prism 5.0 program, and the degrees of AMPK activation were obtained when concentrations of the treated biguanide derivatives were 10 μM and 50 μM and the metformin hydrochloride was 50 μM

Usually melting point stands for the temperature, or range, at which the solid turns liquid. Usually inhibition stands for the drop in the measured response relative to a control, in per cent. A word on the GI50: it is the concentration giving 50% growth inhibition. Read a high GI50 as less potent growth inhibition. Turning to `Cl.N=C(NC(=N)N1CCCCC1)Nc1ccc(-c2nnn[nH]2)cc1` [Example 40, N1-piperidine-N5-(4-(1H-tetrazole-5-yl))phenyl biguanide hydrochloride], the melting point was in the range of 241 to 242 °C. Further, in the data set on HCT116 cells, the inhibition at 100 µM amounted to 0.9% and the 50% growth inhibitory concentration (GI50) was more than 100 µM. Moreover, in the data set on AMPKα, the “AMPK activation effect at 10 μM (%)” value was 41%, the “AMPK activation effect at 50 μM (%)” value came to 55% and the “AMPK activation effect AC150” value is more than 50 µM.
The compound `CS(=O)(=O)Nc1cccc(NC(=N)NC(=N)N2CCCCC2)c1.Cl` [Example 41, N1-piperidine-N5-(3-methylsulfonamide)phenyl biguanide hydrochloride] gave a melting point of 251 to 253 °C. In the data set on HCT116 cells, the inhibition at 100 µM was found to be 18.8% and the 50% growth inhibitory concentration (GI50) was more than 100 µM. In the data set on AMPKα, the “AMPK activation effect at 10 μM (%)” value came out at 86%, the “AMPK activation effect at 50 μM (%)” value was 125% and the “AMPK activation effect AC150” value is more than 50 µM.
With `CSc1ccc(NC(=N)NC(=N)N2CCCCC2)cc1.Cl` [Example 43, N1-piperidine-N5-(4-methylthio)phenyl biguanide hydrochloride], the melting point was in the range of 264 to 265 °C. In the data set with HCT116 cells, the inhibition at 100 µM stood at 98% and the GI50 was found to be 37.1 µM. In the data set on AMPKα, the “AMPK activation effect at 10 μM (%)” value is 239%, the “AMPK activation effect at 50 μM (%)” value amounted to 547% and the “AMPK activation effect AC150” value turned out to be 4.1 µM.
Compound `COc1cc(NC(=N)NC(=N)N2CCCCC2)cc(OC)c1.Cl` [Example 45, N1-piperidine-N5-(3,5-dimethoxy)phenyl biguanide hydrochloride] displayed a melting point of 234 to 236 °C. Besides, in the data set with HCT116 cells, the inhibition at 100 µM turned out to be 41.3% and the 50% growth inhibitory concentration (GI50) is more than 100 µM. For the same compound, in the data set on AMPKα, the “AMPK activation effect at 10 μM (%)” value worked out at 232%, the “AMPK activation effect at 50 μM (%)” value was 249% and the “AMPK activation effect AC150” value worked out at 2.7 µM.
As for `Cl.N=C(NC(=N)N1CCCCC1)Nc1ccc(F)c(C(F)(F)F)c1` [Example 46, N1-piperidine-N5-(4-fluoro-3-trifluoromethyl)phenyl biguanide hydrochloride], the melting point lay in the range of 269 to 270 °C. In the data set on HCT116 cells, the inhibition at 100 µM amounted to 97% and the GI50 amounted to 5.6 µM. Besides, in the data set on AMPKα, the “AMPK activation effect at 10 μM (%)” value stood at 261% and the “AMPK activation effect AC150” value is 1.3 µM.
As to `Cl.N=C(NC(=N)N1CCCCC1)Nc1ccc(Cl)c(C(F)(F)F)c1` [Example 47, N1-piperidine-N5-(4-chloro-3-trifluoromethyl)phenyl biguanide hydrochloride], the melting point lay in the range of 269 to 270 °C. Besides, in the data set with HCT116 cells, the inhibition at 100 µM came out at 96.7% and the GI50 turned out to be 1.9 µM. Also, in the data set with AMPKα, the “AMPK activation effect at 10 μM (%)” value was determined as 169% and the “AMPK activation effect AC150” value worked out at 7.3 µM.
`Cl.N=C(NC(=N)N1CCCCC1)Nc1ccc(F)c(OC(F)(F)F)c1` [Example 50, N1-piperidine-N5-(4-fluoro-3-trifluoromethoxy)phenyl biguanide hydrochloride] came in with a melting point of 260 to 261 °C. Besides, in the data set on HCT116 cells, the inhibition at 100 µM is 97% and it took 3.9 µM to inhibit growth by half (GI50). Besides, in the data set on AMPKα, the “AMPK activation effect at 10 μM (%)” value is 127% and the “AMPK activation effect AC150” value was more than 50 µM.
For `Cl.N=C(NC(=N)N1CCCCC1)Nc1ccc(Cl)c(OC(F)(F)F)c1` [Example 51, N1-piperidine-N5-(4-chloro-3-trifluoromethoxy)phenyl biguanide hydrochloride] the same measures were 251 to 252 °C, 96.3%, 1.9 µM, 160% and 7.8 µM.
Turning to `Cl.N=C(NC(=N)N1CCC1)Nc1ccc(OC(F)(F)F)c(F)c1` [Example 52, N1-azetidine-N5-(3-fluoro-4-trifluoromethoxy)phenyl biguanide hydrochloride], the melting point fell in the range of 260 to 261 °C. Moreover, in the data set with HCT116 cells, the inhibition at 100 µM turned out to be 101% and halving of growth (GI50) required 19.8 µM. Also, in the data set with AMPKα, the “AMPK activation effect at 10 μM (%)” value was determined as 265%, the “AMPK activation effect at 50 μM (%)” value is on record as 740% and the “AMPK activation effect AC150” value amounted to 3.3 µM.
Compound `Cl.N=C(NC(=N)N1CCC1)Nc1ccc(OC(F)(F)F)c(Cl)c1` [Example 55, N1-azetidine-N5-(3-chloro-4-trifluoromethoxy)phenyl biguanide hydrochloride] returned a melting point of 254 to 255 °C. Besides, in the data set with HCT116 cells, the inhibition at 100 µM turned out to be 101% and the GI50 was found to be 7.3 µM. In addition, in the data set on AMPKα, the “AMPK activation effect at 10 μM (%)” value amounted to 342% and the “AMPK activation effect AC150” value turned out to be 2.6 µM.
In turn, `Cl.N=C(NC(=N)N1CCCCC1)Nc1ccc(OC(F)(F)F)c(Cl)c1` [Example 57, N1-piperidine-N5-(3-chloro-4-trifluoromethoxy)phenyl biguanide hydrochloride] returned a melting point of 261 to 262 °C. In the data set on HCT116 cells, the inhibition at 100 µM came out at 96.3% and the GI50 came out at 2.6 µM. For the same compound, in the data set with AMPKα, the “AMPK activation effect at 10 μM (%)” value amounted to 345% and the “AMPK activation effect AC150” value is 3.2 µM.
On to `Cl.N=C(NC(=N)N1CCCCC1)Nc1ccc(F)cc1F` [Example 58, N1-piperidine-N5-(2,4-difluoro)phenyl biguanide hydrochloride], for which the melting point is 256 to 257 °C. Besides, in the data set with HCT116 cells, the inhibition at 100 µM is 37.4% and the 50% growth inhibitory concentration (GI50) is more than 100 µM. Further, in the data set on AMPKα, the “AMPK activation effect at 10 μM (%)” value worked out at 131%, the “AMPK activation effect at 50 μM (%)” value is recorded as 265% and the “AMPK activation effect AC150” value is 16.5 µM.
For `Cl.N=C(NC(=N)N1CCCCC1)Nc1ccc(F)c(F)c1` [Example 59, N1-piperidine-N5-(3,4-difluoro)phenyl biguanide hydrochloride], the melting point is 257 to 258 °C. Also, in the data set with HCT116 cells, the inhibition at 100 µM came out at 97.8% and the concentration for 50% growth inhibition (GI50) turned out to be 28.1 µM. In the data set with AMPKα, the “AMPK activation effect at 10 μM (%)” value turned out to be 269%, the “AMPK activation effect at 50 μM (%)” value was 1036% and the “AMPK activation effect AC150” value turned out to be 3.6 µM.
In turn, `Cl.N=C(NC(=N)N1CCCCC1)Nc1cc(F)cc(F)c1` [Example 60, N1-piperidine-N5-(3,5-difluoro)phenyl biguanide hydrochloride] showed a melting point of 243 to 244 °C. In the data set with HCT116 cells, the inhibition at 100 µM was found to be 97.6% and halving of growth (GI50) required 48.2 µM. Also, in the data set with AMPKα, the “AMPK activation effect at 10 μM (%)” value came out at 144%, the “AMPK activation effect at 50 μM (%)” value was determined as 576% and the “AMPK activation effect AC150” value turned out to be 8.2 µM.
For the compound `Cl.N=C(NC(=N)N1CCCCC1)Nc1cc(Cl)cc(Cl)c1` [Example 61, N1-piperidine-N5-(3,5-dichloro)phenyl biguanide hydrochloride], the melting point fell in the range of 230 to 231 °C. Besides, in the data set on HCT116 cells, the inhibition at 100 µM amounted to 97.7% and halving of growth (GI50) required 7.1 µM. Besides, in the data set on AMPKα, the “AMPK activation effect at 10 μM (%)” value stood at 239% and the “AMPK activation effect AC150” value came to 3.3 µM.
The compound `Cl.N=C(NC(=N)N1CCCCC1)Nc1ccc(Cl)cc1Cl` [Example 62, N1-piperidine-N5-(2,4-dichloro)phenyl biguanide hydrochloride] displayed a melting point of 262 to 263 °C. In the data set with HCT116 cells, the inhibition at 100 µM worked out at 97.2% and it took 11.6 µM to inhibit growth by half (GI50). In the data set with AMPKα, the “AMPK activation effect at 10 μM (%)” value stood at 208% and the “AMPK activation effect AC150” value amounted to 5.6 µM.
For `Cl.N=C(NC(=N)N1CCCC1)Nc1ccc(Cl)c(Cl)c1` [Example 63, N1-pyrrolidine-N5-(3,4-dichloro)phenyl biguanide hydrochloride] the same measures were 282 to 283 °C, 97.6%, 8.7 µM, 261% and 6.2 µM.
